Measured values reported in paper PMC12366525, “Characterization of allosteric modulators that disrupt androgen receptor co-activator protein-protein interactions to alter transactivation–Drug leads for metastatic castration resistant prostate cancer” (SLAS discovery : advancing life sciences R & D, 2023).
“And” between values parts separate entries of the source, which are not always exact repeats. Equal entries are not always repeated.

What was measured:
PSA [1] = test: Dot blot of PSA secretion by C4–2 cells; assay type: cell-based, human; conditions: C4–2 cells; 10 nM DHT 24 h
Protocol: To determine PSA secretion levels, C4–2 cells were seeded at 1.4 × 10 [5] cells/well in 12-well plates and treated as described above for PSA cell expression experiments. […] 500 μL of conditioned media supernatant was added to the wells of 96-well to Bio-blot apparatus (BioRad, Hercules, CA) containing a nitrocellulose membrane and was allowed to pass through and attach to the membrane under gravity for 3–4 h at room temperature. The membrane was washed 1x with 500 μL TBS under vacuum, blocked with 1% BSA in TBST for 1 h, and then incubated overnight at 4 °C with the primary rabbit anti-hPSA antibody (Cell Signaling, Danvers, MA) diluted 1:1000 in TBST plus 1% BSA. Dot blots were washed 3x in 10 mL of TBST for 10 min, then incubated for 1 h with secondary goat anti-rabbit-IgG HRP conjugated antibody (Invitrogen, Carlsbad, CA) diluted 1:10,000 in TBST plus 1% Bovine Serum Albumin (BSA), washed 3x with 10 mL of TBST for 10 min, and then developed with Pierce ECL western blotting substrate. Images of ECL dot blots were acquired on an iBright 1500 imaging system and quantified by iBright image analysis software.

PSA [2] = test: Western blot of PSA expression in C4–2 cells; assay type: cell-based, human; conditions: C4–2 cells
Protocol: Cell lysate protein concentrations were determined in a bicinchoninic acid (BCA) assay. Equal amounts of cell protein were mixed with SDS-PAGE sample buffer and placed in a heat block at 100 °C for 5 min. The protein constituents of C4–2 cells were separated by SDS-PAGE on 10% separating gels, transferred to nitrocellulose membranes and western blots were probed overnight at 4 °C with a 1:1000 dilution of a rabbit anti-hPSA (Cell Signaling, Danvers, MA) primary antibody in Tris-buffered saline (TBS) Tween 20 (TBST) containing 5% non-fat milk. Membranes were washed 3x in TBST for 10 min, then incubated for 1 h at room temperature with a 1:10,000 dilution of the goat anti-rabbit IgG horse radish peroxidase (HRP) conjugated secondary antibody (Invitrogen, Carlsbad, CA) in TBST containing 5% non-fat milk. Western blots were then washed 3x in TBST and developed with Pierce enhanced chemiluminescence (ECL) western blotting substrate (Thermo Fisher Scientific, Waltham, MA). Images of western blot ECL bands were acquired on an iBright 1500 imaging system (Thermo Fisher Scientific, Waltham, MA) and quantified by iBright image analysis software.

AR-TIF2 PPI [3] = target: T1, AR-TIF2 PPI (Homo sapiens, UniProt P10275); test: AR-TIF2 PPI biosensor (PPIB) HCS assay, inhibition of DHT-induced AR-TIF2 PPI formation; assay type: cell-based; conditions: U-2 OS cells; compounds 3 h prior to 25 nM DHT for 90 min
T1 construct: expressed in transfected cells; host or cells: U-2 OS osteosarcoma cells, co-infected with recombinant adenoviruses
T1 sequence (P10275 663-920 limits assumed): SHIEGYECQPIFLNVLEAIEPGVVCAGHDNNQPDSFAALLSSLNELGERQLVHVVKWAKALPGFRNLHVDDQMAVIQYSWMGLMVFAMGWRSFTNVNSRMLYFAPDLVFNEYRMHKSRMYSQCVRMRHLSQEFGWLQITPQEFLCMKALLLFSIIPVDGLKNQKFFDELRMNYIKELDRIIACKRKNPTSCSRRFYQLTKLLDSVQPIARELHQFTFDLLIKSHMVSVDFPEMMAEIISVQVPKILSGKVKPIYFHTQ
Protocol: (§1) Daughter plates containing 2 μL of the serially diluted compounds in DMSO were prepared and replicated from 384-well serial dilution master plates using a Janus MDT platform outfitted with a 384-well transfer head. Aluminum adhesive plate seals were applied, and plates were stored at −20 °C. For bioassay testing, daughter plates were withdrawn from −20 °C storage, thawed to ambient temperature, and centrifuged for 1 min at 100 × g, and plate seals were removed before 38 μL of serum-free media (SFM) was transferred into wells using a Matrix pipettor (ThermoFisher, Waltham, MA), to generate an intermediate stock concentration of validation compounds ranging from 0.977 to 500 μM (5.0% DMSO). Diluted compounds were mixed by repeated aspiration and dispensation using a 384-well P30 dispensing head on the Janus MDT platform and then, 5 μL of diluted compounds was transferred to assay plate wells to provide a final concentration range from 0.0977 to 50 μM (0.5% DMSO).
(§2) The AR-TIF2 PPIB HCS assay was performed in U-2 OS osteosarcoma cells as described previously. Briefly, U-2 OS cells were coinfected with recombinant adenovirus biosensor expression constructs and seeded at 2500 cells per well in 384-well collagen-coated microplates (Greiner BioOne #781956) and plates were incubated overnight at 37°C in 5% CO2 and 95% humidity. […] After the appropriate time, assay plates were fixed by transfer of 50 μL of pre-warmed (37°C) 7.4% formaldehyde and 2 μg/mL Hoechst 33342 in PBS and incubation at room temperature for 30 min. Liquid was aspirated, plates were washed twice with 85 μL PBS, leaving the final wash in the plate. Plates were sealed with adhesive aluminum plate seals, and fluorescent images of three fields of view were acquired in the DAPI (Hoechst stained nuclei), FITC (TIF2-GFP) and Texas Red (AR-RFP) channels on an ImageXpress Micro (IXM) automated HCS platform (Molecular Devices LLC, Sunnyvale, CA) using a 10X Plan Fluor 0.3 NA objective. Images were analyzed using the Translocation Enhanced (TE) image analysis module of the MetaXpress software as described previously.
(§3) In 384-well assays, DMSO minimum (n = 32) and maximum (n = 32) plate control wells were utilized to calculate signal-to-background ratios (S:B) and Z’-factor coefficient assay performance quality control statistics, and to normalize the signals of compound treated wells and to represent 0% and 100% respectively. For the 96-well AR-LBD H^3-DHT radioligand binding assay, eight minimum and maximum plate control wells were utilized to normalize the data. For the PC cell line growth inhibition assays we used the DMSO control data from the T0 and T72 assay plates to assess the dynamic range of the T0 to T72 cell growth, and to calculate S:B ratios and Z’-factor coefficient statistics for the assay signal window (T0 to T72). To normalize the 72 h compound exposure PC growth inhibition data, the signals from the compound treated wells were processed and expressed as% of the T72 DMSO plate controls. IC50 and GI50 values for each of the bioassays were calculated using Graph-Pad Prism 9 software to plot and fit data to curves using the Sigmoidal dose response variable slope equation Y = Bottom + [Top-Bottom]/ [1 + 10^^(LogEC50-X)*HillSlope].

PC-3 cells = test: Prostate cancer cell line growth inhibition assay, PC-3; assay type: cell-based; conditions: Homo sapiens, PC-3, 72 h, read-out: PC3 GI50 (AR−)
Protocol: (§4) The PC-3, DU-145, LNCaP, C4–2, and 22Rv1 PC cell line growth inhibition assays have been described previously. On day 1, each PC cell line was harvested, counted, and seeded into two 384-well assay plates, a time zero (T0) and a time 72 h (T72) plate. PC cell lines were all seeded at 1000 cells per well in 45 μL of tissue culture media in uncoated white clear bottom 384-well assay plates (VWR, # 82050–076) using a Matrix electronic multichannel pipette (Thermo Fisher Scientific, Waltham, MA) and cultured overnight at 37 °C, 5% CO2, and 95% humidity. On day 2, 25 μL of the Cell Titer Glo (CTG) (Promega Corporation, Madison, WI) detection reagent was dispensed into the wells of the T0 assay plate using a Matrix electronic multichannel pipette, and the RLUs were captured on the SpectraMax M5e (Molecular Devices LLC, Sunnyvale, CA) microtiter plate reader. Also on day 2, 5 μL of compounds were transferred into the test wells of the T72 384-well assay plates which were returned to the incubator for 72 h. Control wells received DMSO alone. On day 5, 25 μL of the CTG detection reagent was dispensed into the wells of the T72 assay plate using a Matrix electronic multichannel pipette, and the RLU’s were captured on the SpectraMax M5e microtiter plate reader platform.
as §3

C4–2 cells = test: Prostate cancer cell line growth inhibition assay, C4–2; assay type: cell-based; conditions: C4-2, 72 h; read-out: C4–2 GI50 (AR +)
Protocol: as §4, §3

AR-TIF2 PPI [4] = target: T1, AR-TIF2 PPI; test: AR-TIF2 PPI biosensor (PPIB) HCS assay, disruption of pre-formed AR-TIF2 PPI complexes; assay type: cell-based; conditions: U-2 OS cells; 25 nM DHT 90 min prior to compounds for 3 h
Protocol: as §1, §2, §3

22Rv1 cells = test: Prostate cancer cell line growth inhibition assay, 22Rv1; assay type: cell-based; conditions: Homo sapiens, 22Rv1, 72 h; read-out: 22Rv1 GI50 (AR+)
Protocol: as §4, §3

[5] = system: PC cell lines positive (LNCaP, C4–2, & 22Rv1 cells) or negative (PC-3 & DU-145) for AR; test: Prostate cancer cell line growth inhibition assays, panel statements; assay type: cell-based; conditions: ALL5; all 5 PC cell lines; 72 h; ≥50% growth inhibition not achieved at ≤100 μM; read-out: GI50 in any PC cell line
Protocol: as §4, §3

LNCaP cells = test: Prostate cancer cell line growth inhibition assay, LNCaP; assay type: cell-based; conditions: Homo sapiens, LNCaP, 72 h; read-out: LNCap GI50 (AR+)
Protocol: as §4, §3

DU-145 cells = test: Prostate cancer cell line growth inhibition assay, DU-145; assay type: cell-based; conditions: Homo sapiens, DU-145, 72 h; read-out: DU145 GI50 (AR−)
Protocol: as §4, §3

U-2 OS cells = test: AR-TIF2 PPIB cell loss (Hoechst stained nuclei); assay type: cell-based; conditions: 4.5 h compound exposure
Protocol: as §2

[6] = system: LNCaP mouse xenograft models; conditions: cited from earlier work

With `C[C@]12CCC(=O)C[C@@H]1CC[C@@H]1[C@@H]2CC[C@]2(C)[C@@H](O)CC[C@@H]12` [DHT, 5α-dihydrotestosterone, reference compound] the “Increase of PSA levels in conditioned media over untreated controls” value (PSA [1]) was 2.4 fold and the “Increase of PSA levels in cells over untreated controls” value (PSA [2]; 10 nM DHT 24 h) was 12.3 fold and 11.4 fold.

For `Cc1nsc(NC(=O)N2CCC(N3CCCC3=O)CC2)n1` [S2–9], the IC50 (AR-TIF2 PPI [3]) was > 100 µM, the GI50 (PC-3 cells) was > 100 µM and the GI50 (C4–2 cells) was > 100 µM. The IC50 (AR-TIF2 PPI [4]) was > 100 µM, the GI50 (22Rv1 cells) was > 100 µM and the GI50 [5] was > 100 µM. For the same molecule, the GI50 (LNCaP cells) was > 100 µM, the GI50 (DU-145 cells) was > 100 µM and the “AR-TIF2 PPIB Cell Loss” value (U-2 OS cells) was >100 µM.

For `Cc1nsc(NC(=O)N2CCC(F)CC2)n1` [S2–10], the GI50 (PC-3 cells) was > 100 µM, the GI50 (C4–2 cells) was > 100 µM and the GI50 (22Rv1 cells) was > 100 µM. For the same molecule, the GI50 [5] was > 100 µM, the GI50 (LNCaP cells) was > 100 µM and the GI50 (DU-145 cells) was > 100 µM. The “AR-TIF2 PPIB Cell Loss” value (U-2 OS cells) was >100 µM.

Molecule `Cc1c(-c2ccccc2F)[nH]c2ccc(CNC(=O)c3cc[nH]n3)cc12` [S3–16] has an IC50 (AR-TIF2 PPI [3]) of 28.8 µM.

For `Cc1c(-c2ccccc2F)[nH]c2ccc(CNC(=O)CCC3=NNC(=O)CC3)cc12` [S3–18], the IC50 (AR-TIF2 PPI [3]) was 39.6 µM and the IC50 (AR-TIF2 PPI [4]) was > 100 µM.

With `Cc1c(-c2ccccc2F)[nH]c2ccc(CNC(=O)Cc3cccnc3)cc12` [S3–19] the IC50 (AR-TIF2 PPI [3]) was 68.5 µM and the IC50 (AR-TIF2 PPI [4]) was > 100 µM.

`CCc1[nH]c2c(CNC(=O)CCCc3cn[nH]c3)cc(F)cc2c1C` [S3–25] gave an IC50 (AR-TIF2 PPI [3]) of 77.1 µM.

In the case of `Cc1cccc2c(-c3ccc4ccccc4n3)c[nH]c12` [VPC-13566, 2-(7-methyl-1H-indol-3-yl) quinoline], the “CRPC tumor growth and serum PSA levels” value [6] is given as “reduced CRPC tumor growth and serum PSA levels”.

In the case of `CC(C)NC(=O)c1cccc2nc(-c3cn(COP(=O)([O-])[O-])c4c(F)c(F)c(F)cc34)ccc12.[Na+].[Na+]` [VPC-13822], the “PSA production and CRPC tumor volume” value [6] is listed as “reduced PSA production and CRPC tumor volume” and the “Toxicity in xenograft models” value ([6]; mouse, in vivo) is listed as “no observable toxicity”.

In the case of `CNC(=O)c1ccc(N2C(=S)N(c3ccc(C#N)c(C(F)(F)F)c3)C(=O)C2(C)C)cc1F` [enzalutamide, reference compound], the “Reduction of DHT-enhanced PSA expression levels” value (PSA [2]; 25 μM for 3 h prior to 10 nM DHT, 24 h) is reported as 7.5 fold and the “Reduction of endogenous PSA expression levels” value (PSA [2]; 25 μM for 3 h prior to media, 24 h) is reported as 3.3 fold.
